Assay results: patent US9322066B2, “Predictors for cancer treatment” (priority 2011, dated 2016)

System: relapsed or refractory, rituximab-naive or -sensitive follicular B-cell NHL
Assay: Time to next anti-lymphoma therapy, Vc-R vs rituximab study, by biomarker
Format: in vivo, human
Design: Median, Time to Next Anti-Lymphoma Therapy / Time to Next Anti-Lymphoma Therapy, Median: unit not given here
Excerpt: Non-Hodgkin lymphoma (NHL) encompasses several unique malignant lymphoid disease entities that vary in clinical behavior, morphologic appearance, immunologic, and molecular phenotype. […] A randomized, open-label, active-controlled, multicenter, multinational, prospective study to compare the efficacy and safety of the combination of bortezomib and rituximab (Vc-R) to single-agent rituximab in subjects who have relapsed or refractory, rituximab-naive or -sensitive follicular B-cell NHL was performed.
Subjects were centrally randomized to Treatment Groups A (Vc-R) or B (rituximab) in a 1:1 ratio taking into account the following stratification factors: • Follicular Lymphoma International Prognostic Index (FLIPI) score (low [0 or 1 factor], intermediate [2 factors], high [≧3 factors]); • Prior rituximab therapy (yes, no); • Time since last dose of anti-lymphoma therapy (≦1 year, >1 year); • Region (United States/Canada, European Union, Rest of World).
The following clinical endpoints were included in the analysis within each treatment group and an overall comparison was made with the biomarker-related endpoints: Progression-free survival, defined as the interval between the date of randomization and the date of progressive disease (PD) or death, whichever is first reported in the ITT population; overall survival; overall response rate (complete response [CR]+CR unconfirmed [CRu]+partial response [PR]); overall CR rate (CR+CRu); duration of response; time to next anti-lymphoma therapy; and treatment free interval.

[1] = CD68 POSITIVE PERIFOLLICULAR: 0-25, White, IRC Review
[2] = CD68 POSITIVE PERIFOLLICULAR: 0-25, ≦65 years old, IRC Review
[3] = CD68 POSITIVE PERIFOLLICULAR: 26-50, Other, IRC Review
[4] = CD68 POSITIVE PERIFOLLICULAR: >75, 1 Prior Line of Therapy, IRC Review
[5] = CD68 POSITIVE PERIFOLLICULAR: >75, European Union, IRC Review
[6] = CD68 POSITIVE PERIFOLLICULAR: >75, ≦65 years old, IRC Review
[7] = NOTCH/G_A1702P: MND, subgroup White, IRC review
[8] = NOTCH/I1681N: MND, subgroup White, IRC review
[9] = NOTCH/L1679P: MND, subgroup White, IRC review
[10] = NOTCH/L1679Q: MND, subgroup White, IRC review
[11] = NOTCH/L2458V: MND, subgroup White, IRC review
[12] = NOTCH/P2513L: MND, subgroup White, IRC review
[13] = NOTCH/P2515FS4: MND, subgroup White, IRC review
[14] = NOTCH/Q2441X: MND, subgroup White, IRC review
[15] = NOTCH/Q2460X: MND, subgroup White, IRC review
[16] = NOTCH/X26DEL: MND, subgroup White, IRC review
[17] = NOTCH/X26INS: MND, subgroup White, IRC review
[18] = NOTCH/X28DEL: MND, subgroup White, IRC review
[19] = NOTCH/X28INS: MND, subgroup White, IRC review
[20] = P27 % NUCLEI POSITIVE: 0-20, 1 Prior Line of Therapy, IRC Review
[21] = P27 % NUCLEI POSITIVE: 0-20, Ann Arbor Stage III, IRC Review
[22] = P27 % NUCLEI POSITIVE: 0-20, High Tumor Burden, IRC Review
[23] = P27 % NUCLEI POSITIVE: 0-20, ≦65 years old, IRC Review
[24] = P27 % NUCLEI POSITIVE: 30-50, High Tumor Burden, IRC Review
[25] = P27 % NUCLEI POSITIVE: 80-100, European Union, IRC Review
[26] = P27 SIGNAL INTENSITY: ≦1+, High Tumor Burden, IRC Review
[27] = P27 SIGNAL INTENSITY: ≧2+, 5 Prior Lines of Therapy, IRC Review
[28] = P27 SIGNAL INTENSITY: ≧2+, European Union, IRC Review
[29] = P27 SIGNAL INTENSITY: ≧2+, Prior Rituximab Therapy, IRC Review
[30] = P27 SIGNAL INTENSITY: ≧2+, White, IRC Review
[31] = P27 SIGNAL INTENSITY: ≧2+, ≦65 years old, IRC Review
[32] = P27 SIGNAL TENSITY: ≧2+, No Subgroup, IRC Review
[33] = P65 % NUCLEAR STAINING: 0, 1 Prior Line of Therapy, IRC Review
[34] = P65 % NUCLEAR STAINING: ≦5%, 2 Prior Lines of Therapy, IRC Review
[35] = P65 % NUCLEAR STAINING: ≦5%, 5 Prior Lines of Therapy, IRC Review
[36] = P65 % NUCLEAR STAINING: ≦5%, Prior Rituximab Therapy, IRC Review
[37] = P65 % NUCLEAR STAINING: ≦5%, ≦65 years old, IRC Review
[38] = P65 % POSITIVE CYTOPLASMIC SIGNAL: >90%, 1 Prior Line of Therapy, IRC Review
[39] = P65 % POSITIVE CYTOPLASMIC SIGNAL: >90%, >1 year since last anti- lymphoma treatment, IRC Review
[40] = P65 % POSITIVE CYTOPLASMIC SIGNAL: >90%, European Union, IRC Review
[41] = P65 % POSITIVE CYTOPLASMIC SIGNAL: >90%, Male, IRC Review
[42] = P65 % POSITIVE CYTOPLASMIC SIGNAL: >90%, No Subgroup, IRC Review
[43] = P65 % POSITIVE CYTOPLASMIC SIGNAL: >90%, White, IRC Review
[44] = P65 % POSITIVE CYTOPLASMIC SIGNAL: >90%, ≦65 years old, IRC Review
[45] = P65 INTENSITY CYTOPLASMIC SIGNAL: ≦1+, Ann Arbor Stage III, IRC Review
[46] = P65 INTENSITY CYTOPLASMIC SIGNAL: ≦1+, European Union, IRC Review
[47] = P65 INTENSITY CYTOPLASMIC SIGNAL: ≧2+, 1 Prior Line of Therapy, IRC Review
[48] = P65 INTENSITY CYTOPLASMIC SIGNAL: ≧2+, Female, IRC Review
[49] = P65 INTENSITY CYTOPLASMIC SIGNAL: ≧2+, White, IRC Review

rituximab
Evt/N, Time to Next Anti-Lymphoma Therapy [1]: 19/27
Median, Time to Next Anti-Lymphoma Therapy [1]: 501
Evt/N, Time to Next Anti-Lymphoma Therapy [2]: 20/31
Median, Time to Next Anti-Lymphoma Therapy [2]: 332
Evt/N, Time to Next Anti-Lymphoma Therapy [3]: 4/4
Median, Time to Next Anti-Lymphoma Therapy [3]: 341
Evt/N, Time to Next Anti-Lymphoma Therapy [4]: 15/18
Median, Time to Next Anti-Lymphoma Therapy [4]: 437
Evt/N, Time to Next Anti-Lymphoma Therapy [5]: 13/17
Median, Time to Next Anti-Lymphoma Therapy [5]: 675
Evt/N, Time to Next Anti-Lymphoma Therapy [6]: 19/23
Median, Time to Next Anti-Lymphoma Therapy [6]: 437
Evt/N, Time to Next Anti-Lymphoma Therapy [7]: 97/152
Median, Time to Next Anti-Lymphoma Therapy [7]: 504
Evt/N, Time to Next Anti-Lymphoma Therapy [8]: 97/152
Median, Time to Next Anti-Lymphoma Therapy [8]: 504
Evt/N, Time to Next Anti-Lymphoma Therapy [9]: 97/152
Median, Time to Next Anti-Lymphoma Therapy [9]: 504
Evt/N, Time to Next Anti-Lymphoma Therapy [10]: 97/152
Median, Time to Next Anti-Lymphoma Therapy [10]: 504
Evt/N, Time to Next Anti-Lymphoma Therapy [11]: 89/140
Median, Time to Next Anti-Lymphoma Therapy [11]: 504
Evt/N, Time to Next Anti-Lymphoma Therapy [12]: 78/122
Median, Time to Next Anti-Lymphoma Therapy [12]: 504
Evt/N, Time to Next Anti-Lymphoma Therapy [13]: 99/154
Median, Time to Next Anti-Lymphoma Therapy [13]: 505
Evt/N, Time to Next Anti-Lymphoma Therapy [14]: 88/139
Median, Time to Next Anti-Lymphoma Therapy [14]: 501
Evt/N, Time to Next Anti-Lymphoma Therapy [15]: 85/131
Median, Time to Next Anti-Lymphoma Therapy [15]: 501
Evt/N, Time to Next Anti-Lymphoma Therapy [16]: 99/155
Median, Time to Next Anti-Lymphoma Therapy [16]: 505
Evt/N, Time to Next Anti-Lymphoma Therapy [17]: 101/159
Median, Time to Next Anti-Lymphoma Therapy [17]: 533
Evt/N, Time to Next Anti-Lymphoma Therapy [18]: 111/169
Median, Time to Next Anti-Lymphoma Therapy [18]: 504
Evt/N, Time to Next Anti-Lymphoma Therapy [19]: 115/174
Median, Time to Next Anti-Lymphoma Therapy [19]: 504
Evt/N, Time to Next Anti-Lymphoma Therapy [20]: 19/26
Median, Time to Next Anti-Lymphoma Therapy [20]: 434
Evt/N, Time to Next Anti-Lymphoma Therapy [21]: 14/16
Median, Time to Next Anti-Lymphoma Therapy [21]: 418
Evt/N, Time to Next Anti-Lymphoma Therapy [22]: 23/27
Median, Time to Next Anti-Lymphoma Therapy [22]: 220
Evt/N, Time to Next Anti-Lymphoma Therapy [23]: 26/34
Median, Time to Next Anti-Lymphoma Therapy [23]: 327
Evt/N, Time to Next Anti-Lymphoma Therapy [24]: 17/22
Median, Time to Next Anti-Lymphoma Therapy [24]: 421
Evt/N, Time to Next Anti-Lymphoma Therapy (P27 % NUCLEI POSITIVE: 60-70, 3 Prior Lines of Therapy, IRC Review): 1/6
Evt/N, Time to Next Anti-Lymphoma Therapy [25]: 29/41
Median, Time to Next Anti-Lymphoma Therapy [25]: 655
Evt/N, Time to Next Anti-Lymphoma Therapy [26]: 16/18
Median, Time to Next Anti-Lymphoma Therapy [26]: 220
Evt/N, Time to Next Anti-Lymphoma Therapy [27]: 5/6
Median, Time to Next Anti-Lymphoma Therapy [27]: 228
Evt/N, Time to Next Anti-Lymphoma Therapy [28]: 57/89
Median, Time to Next Anti-Lymphoma Therapy [28]: 649
Evt/N, Time to Next Anti-Lymphoma Therapy [29]: 60/88
Median, Time to Next Anti-Lymphoma Therapy [29]: 421
Evt/N, Time to Next Anti-Lymphoma Therapy [30]: 113/177
Median, Time to Next Anti-Lymphoma Therapy [30]: 533
Evt/N, Time to Next Anti-Lymphoma Therapy [31]: 103/153
Median, Time to Next Anti-Lymphoma Therapy [31]: 484
Evt/N, Time to Next Anti-Lymphoma Therapy [32]: 127/199
Median, Time to Next Anti-Lymphoma Therapy [32]: 533
Evt/N, Time to Next Anti-Lymphoma Therapy [33]: 54/79
Median, Time to Next Anti-Lymphoma Therapy [33]: 546
Evt/N, Time to Next Anti-Lymphoma Therapy [34]: 7/9
Median, Time to Next Anti-Lymphoma Therapy [34]: 225
Evt/N, Time to Next Anti-Lymphoma Therapy [35]: 3/3
Median, Time to Next Anti-Lymphoma Therapy [35]: 235
Evt/N, Time to Next Anti-Lymphoma Therapy [36]: 16/21
Median, Time to Next Anti-Lymphoma Therapy [36]: 232
Evt/N, Time to Next Anti-Lymphoma Therapy [37]: 19/29
Median, Time to Next Anti-Lymphoma Therapy [37]: 374
Evt/N, Time to Next Anti-Lymphoma Therapy [38]: 59/89
Median, Time to Next Anti-Lymphoma Therapy [38]: 550
Evt/N, Time to Next Anti-Lymphoma Therapy [39]: 69/117
Median, Time to Next Anti-Lymphoma Therapy [39]: 593
Evt/N, Time to Next Anti-Lymphoma Therapy [40]: 57/92
Median, Time to Next Anti-Lymphoma Therapy [40]: 552
Evt/N, Time to Next Anti-Lymphoma Therapy [41]: 51/72
Median, Time to Next Anti-Lymphoma Therapy [41]: 427
Evt/N, Time to Next Anti-Lymphoma Therapy [42]: 129/204
Median, Time to Next Anti-Lymphoma Therapy [42]: 505
Evt/N, Time to Next Anti-Lymphoma Therapy [43]: 113/179
Median, Time to Next Anti-Lymphoma Therapy [43]: 505
Evt/N, Time to Next Anti-Lymphoma Therapy [44]: 103/154
Median, Time to Next Anti-Lymphoma Therapy [44]: 484
Evt/N, Time to Next Anti-Lymphoma Therapy [45]: 10/11
Median, Time to Next Anti-Lymphoma Therapy [45]: 261
Evt/N, Time to Next Anti-Lymphoma Therapy [46]: 13/18
Median, Time to Next Anti-Lymphoma Therapy [46]: 409
Evt/N, Time to Next Anti-Lymphoma Therapy [47]: 54/85
Median, Time to Next Anti-Lymphoma Therapy [47]: 568
Evt/N, Time to Next Anti-Lymphoma Therapy [48]: 74/129
Median, Time to Next Anti-Lymphoma Therapy [48]: 537
Evt/N, Time to Next Anti-Lymphoma Therapy [49]: 109/176
Median, Time to Next Anti-Lymphoma Therapy [49]: 533
Evt/N, Time to Next Anti-Lymphoma Therapy (P65 INTENSITY CYTOPLASMIC SIGNAL: ≧2+, ≦65 years old, IRC Review): 101/152
